Experimental data taken from PubChem BioAssay (NCI).
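Tested at 5 concentrations; 48 h exposure; 96-well plates; endpoints linearly interpolated, else capped at highest concentration. GI50 = concentration required for 50% inhibition of growth. At the TGI there is no net growth.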

Key:
Test in all cases: NCI anticancer screen, dose series, 48 h
MCF7 breast = tested on: MCF7 breast
ACHN renal = tested on: ACHN renal
NCI/ADR-RES ovarian = tested on: NCI/ADR-RES ovarian
HOP-92 NSCLC = tested on: HOP-92 NSCLC
HCT-15 colon = tested on: HCT-15 colon
SNB-75 CNS = tested on: SNB-75 CNS
SF-268 CNS = tested on: SF-268 CNS
HS 578T breast = tested on: HS 578T breast
SR leukemia = tested on: SR leukemia
CAKI-1 renal = tested on: CAKI-1 renal
PC-3 prostate = tested on: PC-3 prostate
CCRF-CEM leukemia = tested on: CCRF-CEM leukemia
SW-620 colon = tested on: SW-620 colon
HCC-2998 colon = tested on: HCC-2998 colon
SF-295 CNS = tested on: SF-295 CNS
NCI-H522 lung = tested on: NCI-H522 lung
MDA-MB-231 breast = tested on: MDA-MB-231 breast
786-0 renal = tested on: 786-0 renal
U251 CNS = tested on: U251 CNS
HT29 colon = tested on: HT29 colon
IGROV1 ovarian = tested on: IGROV1 ovarian
HCT-116 colon = tested on: HCT-116 colon
MDA-MB-435 = tested on: MDA-MB-435
HOP-62 NSCLC = tested on: HOP-62 NSCLC
COLO 205 colon = tested on: COLO 205 colon
SK-MEL-28 melanoma = tested on: SK-MEL-28 melanoma
NCI-H23 lung = tested on: NCI-H23 lung
M14 melanoma = tested on: M14 melanoma
LOX IMVI melanoma = tested on: LOX IMVI melanoma
BT-549 breast = tested on: BT-549 breast
UACC-257 melanoma = tested on: UACC-257 melanoma
OVCAR-8 ovarian = tested on: OVCAR-8 ovarian
A549 NSCLC = tested on: A549 NSCLC
SK-OV-3 ovarian = tested on: SK-OV-3 ovarian
MALME-3M melanoma = tested on: MALME-3M melanoma
MOLT-4 leukemia = tested on: MOLT-4 leukemia
SK-MEL-5 melanoma = tested on: SK-MEL-5 melanoma
NCI-H226 lung = tested on: NCI-H226 lung
KM12 colon = tested on: KM12 colon
OVCAR-4 ovarian = tested on: OVCAR-4 ovarian
EKVX NSCLC = tested on: EKVX NSCLC
SN12C renal = tested on: SN12C renal
A498 renal = tested on: A498 renal
UO-31 renal = tested on: UO-31 renal
UACC-62 melanoma = tested on: UACC-62 melanoma
DU-145 prostate = tested on: DU-145 prostate
K-562 leukemia = tested on: K-562 leukemia
RPMI-8226 leukemia = tested on: RPMI-8226 leukemia
RXF 393 renal = tested on: RXF 393 renal
NCI-H460 lung = tested on: NCI-H460 lung
OVCAR-3 ovarian = tested on: OVCAR-3 ovarian
SF-539 CNS = tested on: SF-539 CNS
SK-MEL-2 melanoma = tested on: SK-MEL-2 melanoma
SNB-19 CNS = tested on: SNB-19 CNS
TK-10 renal = tested on: TK-10 renal
OVCAR-5 ovarian = tested on: OVCAR-5 ovarian
HL-60(TB) leukemia = tested on: HL-60(TB) leukemia
T-47D breast = tested on: T-47D breast

## O=C(NCCNc1nccc(-c2c(-c3cccc(O)c3)nc3sccn23)n1)c1ccccc1O
MCF7 breast
  GI50: 3.27 µM
  TGI: 19.9 µM
ACHN renal
  GI50: 3.35 µM
  TGI: > 53.4 µM
NCI/ADR-RES ovarian
  GI50: 6.64 µM
  TGI: 70.1 µM
HOP-92 NSCLC
  GI50: 2.92 µM
  TGI: 28.6 µM
HCT-15 colon
  GI50: 4.53 µM
  TGI: > 46.8 µM
SNB-75 CNS
  GI50: 2.29 µM
  TGI: 19.6 µM
SF-268 CNS
  GI50: 5.4 µM
  TGI: 46.6 µM
HS 578T breast
  GI50: 3.15 µM
  TGI: 16 µM
SR leukemia
  GI50: 3.71 µM
  TGI: > 56.7 µM
CAKI-1 renal
  GI50: 3.23 µM
  TGI: 21.8 µM
PC-3 prostate
  GI50: 4.36 µM
  TGI: 55.1 µM
CCRF-CEM leukemia
  GI50: 1.21 µM
  TGI: 19.4 µM
SW-620 colon
  GI50: 5.86 µM
  TGI: 48.4 µM
HCC-2998 colon
  GI50: 5.67 µM
  TGI: 22.5 µM
SF-295 CNS
  GI50: 4.18 µM
  TGI: 26.6 µM
NCI-H522 lung
  GI50: 4.24 µM
  TGI: 16.9 µM
MDA-MB-231 breast
  GI50: 2.87 µM
  TGI: 32 µM
786-0 renal
  GI50: 6.25 µM
  TGI: 43.1 µM
U251 CNS
  GI50: 4.9 µM
  TGI: > 47.6 µM
HT29 colon
  GI50: 3.61 µM
  TGI: 20.7 µM
IGROV1 ovarian
  GI50: 4.52 µM
  TGI: > 73 µM
HCT-116 colon
  GI50: 3.42 µM
  TGI: 14.9 µM
MDA-MB-435
  GI50: 0.491 µM
  TGI: 12.1 µM
HOP-62 NSCLC
  GI50: 9.04 µM
  TGI: 42.1 µM
COLO 205 colon
  GI50: 5.32 µM
  TGI: 23.4 µM
SK-MEL-28 melanoma
  GI50: 0.43 µM
  TGI: 33.3 µM
NCI-H23 lung
  GI50: 4.51 µM
  TGI: 36.8 µM
M14 melanoma
  GI50: 0.342 µM
  TGI: 13.6 µM
LOX IMVI melanoma
  GI50: 3.03 µM
  TGI: 23.7 µM
BT-549 breast
  GI50: 4.74 µM
  TGI: 34.9 µM
UACC-257 melanoma
  GI50: 0.473 µM
  TGI: 11.2 µM
OVCAR-8 ovarian
  GI50: 3.14 µM
  TGI: 25.4 µM
A549 NSCLC
  GI50: 5.02 µM
  TGI: > 51.1 µM
SK-OV-3 ovarian
  GI50: 4.31 µM
  TGI: 39.7 µM
MALME-3M melanoma
  GI50: 0.152 µM
  TGI: 18.7 µM
MOLT-4 leukemia
  GI50: 4.87 µM
  TGI: > 52.2 µM
SK-MEL-5 melanoma
  GI50: 1.47 µM
  TGI: 5.21 µM
NCI-H226 lung
  GI50: 9.24 µM
  TGI: 32.3 µM
KM12 colon
  GI50: 4.41 µM
  TGI: 15.7 µM
OVCAR-4 ovarian
  GI50: 6.67 µM
  TGI: 53.6 µM
EKVX NSCLC
  GI50: 11.8 µM
  TGI: 50.9 µM
SN12C renal
  GI50: 3.56 µM
  TGI: 52 µM
A498 renal
  GI50: 7.67 µM
  TGI: 28.2 µM
UO-31 renal
  GI50: 5 µM
  TGI: 19.8 µM
UACC-62 melanoma
  GI50: 0.181 µM
  TGI: 4.91 µM
DU-145 prostate
  GI50: 5.23 µM
  TGI: 35.5 µM
K-562 leukemia
  GI50: 4.11 µM
  TGI: > 100 µM
RPMI-8226 leukemia
  GI50: 2.27 µM
  TGI: 10.8 µM
RXF 393 renal
  GI50: 2.78 µM
  TGI: 16.8 µM
NCI-H460 lung
  GI50: 4.16 µM
  TGI: 19.6 µM
OVCAR-3 ovarian
  GI50: 5.57 µM
  TGI: 47.8 µM
SF-539 CNS
  GI50: 7.27 µM
  TGI: 24.5 µM
SK-MEL-2 melanoma
  GI50: 1.59 µM
  TGI: 6.09 µM
SNB-19 CNS
  GI50: 12.6 µM
  TGI: > 78.7 µM
TK-10 renal
  GI50: 6.17 µM
  TGI: 30.3 µM
OVCAR-5 ovarian
  GI50: 13.3 µM
  TGI: 65.3 µM
HL-60(TB) leukemia
  GI50: 3.38 µM
  TGI: > 29.4 µM
T-47D breast
  GI50: 3.65 µM
  TGI: 20.5 µM
